Like-named read-outs stand apart in the source and are kept apart here.
How the values were obtained:
Format in all cases: in vivo
[1] = test system: larvae of the mustard beetle (Phaedon cochleariae); assay: Phaedon cochleariae spray test (PHAECO); conditions: for inhibition at 20 g/ha: read-out: % Activity
Method: Phaedon Cochleariae—Spray Test (PHAECO)
(§1) • Solvents: 78.0 parts by weight of acetone • 1.5 parts by weight of dimethylformamide • Emulsifier: 0.5 part by weight of alkylaryl polyglycol ether
(§2) To produce a suitable preparation of active compound, 1 part by weight of active compound is mixed with the stated amounts of solvents and emulsifier, and the concentrate is diluted with emulsifier-containing water to the desired concentration.
After the desired period of time, the effect in % is determined 100% means that all of the beetle larvae have been killed; 0% means that none of the beetle larvae have been killed.

[2] = test system: green peach aphid (Myzus persicae); assay: Myzus spray test (MYZUPE); conditions: for inhibition at 20 g/ha / inhibition at 100 g/ha / inhibition at 500 g/ha: Myzus persicae, 144 h; for inhibition at 20 g/ha / inhibition at 100 g/ha: read-out: % Activity; for efficacy compared to similar compounds of the prior art: MYZUPE spray test
Method: Myzus—Spray Test (MYZUPE)
as §1, §2
Discs of Chinese cabbage leaves (Brassica pekinensis) infested by all stages of the green peach aphid (Myzus persicae) are sprayed with an active compound preparation of the desired concentration.
After the desired period of time, the effect in % is determined. 100% here means that all of the aphids have been killed; 0% means that no aphids have been killed.

[3] = test system: greenhouse red spider mite (Tetranychus urticae); assay: Tetranychus urticae spray test, OP-resistant (TETRUR), bean leaf discs; conditions: for inhibition at 500 g/ha / inhibition at 100 g/ha: Tetranychus urticae, foliar, 144 h, read-out: % Activity; for efficacy compared to similar compounds of the prior art: TETRUR spray test, leaf discs
Method: Tetranychus urticae—Spray Test; OP-resistant (TETRUR)
as §1, §2
Discs of bean leaves (Phaseolus vulgaris) which are infested by all stages of the greenhouse red spider mite (Tetranychus urticae) are sprayed with an active compound preparation of the desired concentration.
After the desired period of time, the effect in % is determined. 100% means that all of the spider mites have been killed; 0% means that none of the spider mites have been killed.

[4] = Phaedon cochleariae, 168 h, PHAECO, 20 g/ha, 7 dat

CCC(=O)NCc1cc(N(C)C(=O)c2c(C(F)(F)F)c(C(F)(F)C(F)(F)F)nn2C)ccc1F [Example 1]
inhibition at 20 g/ha ([1]; Phaedon cochleariae, 168 h): 100% | inhibition at 20 g/ha [2]: 90% | inhibition at 500 g/ha [3]: 100%

CCN(C(=O)c1c(C(F)(F)F)c(C(F)(F)C(F)(F)F)nn1C)c1ccc(F)c(CNC(=O)C2CC2)c1 [Example 2]
efficacy compared to similar compounds of the prior art [2]: superior efficacy | inhibition at 100 g/ha [2]: 90% | efficacy compared to similar compounds of the prior art [3]: superior efficacy | inhibition at 100 g/ha [3]: 100%

CC(=O)NCc1cc(N(C)C(=O)c2c(C(F)(F)F)c(C(F)(F)C(F)(F)F)nn2C)ccc1F [Example 8]
inhibition at 500 g/ha ([2]; MYZUPE, 6 dat): 100% | inhibition at 500 g/ha ([3]; TETRUR, 500 g/ha, 6 dat): 100%

CCN(C(=O)c1c(C(F)(F)F)c(C(F)(F)C(F)(F)F)nn1C)c1ccc(F)c(CNC(C)=O)c1 [Example 9]
efficacy compared to similar compounds of the prior art [2]: superior efficacy | inhibition at 20 g/ha ([2]; MYZUPE, 20 g/ha, 6 dat): 100% | efficacy compared to similar compounds of the prior art [3]: superior efficacy | inhibition at 500 g/ha ([3]; TETRUR, 500 g/ha, 6 dat): 100%

CN(C(=O)c1c(C(F)(F)F)c(C(F)(F)C(F)(F)F)nn1C)c1cccc(CNC(=O)C2CC2)c1 [Example 10]
inhibition at 100 g/ha ([2]; MYZUPE, 100 g/ha, 6 dat): 100% | inhibition at 500 g/ha ([3]; TETRUR, 500 g/ha, 6 dat): 100%

CC(=O)NCc1c(F)ccc(NC(=O)c2c(C(F)(F)F)c(C(F)(F)C(F)(F)F)nn2C)c1F [Example 11]
inhibition at 100 g/ha ([1]; Phaedon cochleariae, 168 h, PHAECO, 100 g/ha, 7 dat): 100% | inhibition at 500 g/ha ([3]; TETRUR, 500 g/ha, 6 dat): 90%

CCC(=O)NCc1cc(NC(=O)c2c(C(F)(F)F)c(C(F)(F)F)nn2C)ccc1F [Example 201]
efficacy compared to similar compounds of the prior art [2]: superior efficacy | inhibition at 20 g/ha ([2]; MYZUPE, 20 g/ha, 6 dat): 100% | efficacy compared to similar compounds of the prior art [3]: superior efficacy | inhibition at 100 g/ha ([3]; TETRUR, 100 g/ha, 6 dat): 100%

Cn1nc(C(F)(F)F)c(C(F)(F)F)c1C(=O)Nc1ccc(F)c(CNC(=O)C2CC2)c1 [Example 298]
efficacy compared to similar compounds of the prior art [2]: superior efficacy | inhibition at 20 g/ha ([2]; MYZUPE, 20 g/ha, 6 dat): 90%

CC(=O)NCc1cc(NC(=O)c2c(Br)c(C(F)(F)C(F)(F)F)nn2C)ccc1F [Example 926]
efficacy compared to similar compounds of the prior art [3]: superior efficacy | inhibition at 100 g/ha ([3]; TETRUR, 100 g/ha, 6 dat): 90%

Cn1nc(C(F)(F)C(F)(F)F)c(Br)c1C(=O)Nc1ccc(F)c(CNC(=O)C2CC2)c1 [Example 933]
efficacy compared to similar compounds of the prior art ([1]; PHAECO spray test): superior efficacy | inhibition at 20 g/ha [1, 4]: 100% | efficacy compared to similar compounds of the prior art [3]: superior efficacy | inhibition at 100 g/ha ([3]; TETRUR, 100 g/ha, 6 dat): 90%

CC(=O)NCc1cc(NC(=O)c2c(Cl)c(C(F)(F)F)nn2C)ccc1F [Example 937]
efficacy compared to similar compounds of the prior art [2]: superior efficacy | inhibition at 100 g/ha ([2]; MYZUPE, 100 g/ha, 6 dat): 90%

Cn1nc(C(F)(F)C(F)(F)F)c(C(F)(F)F)c1C(=O)Nc1cccc(C(=O)NC2CC2)c1 [Example Ik-13, reference compound]
inhibition at 500 g/ha ([2]; MYZUPE, 6 dat): 0% | inhibition at 500 g/ha ([3]; TETRUR, 500 g/ha, 6 dat): 0%

Cn1nc(C(F)(F)F)c(Cl)c1C(=O)Nc1ccc(Cl)c(C(=O)NC2CC2)c1 [Example Ik-18, reference compound]
inhibition at 100 g/ha ([2]; MYZUPE, 100 g/ha, 6 dat): 0%

Cn1nc(C(F)(F)C(F)(F)F)c(Br)c1C(=O)Nc1ccc(Cl)c(C(=O)NC2CC2)c1 [Example Ik-26, reference compound]
inhibition at 20 g/ha [1, 4]: 0% | inhibition at 100 g/ha ([3]; TETRUR, 100 g/ha, 6 dat): 0%

CC(C)NC(=O)c1cc(NC(=O)c2c(Br)c(C(F)(F)C(F)(F)F)nn2C)ccc1Cl [Example Ik-27, reference compound]
inhibition at 100 g/ha ([3]; TETRUR, 100 g/ha, 6 dat): 0%

CCCNC(=O)c1cc(NC(=O)c2c(C(F)(F)F)c(C(F)(F)C(F)(F)F)nn2C)ccc1Cl [Example Ik-30, reference compound]
inhibition at 20 g/ha ([2]; MYZUPE, 20 g/ha, 6 dat): 0%

CN(C(=O)c1c(C(F)(F)F)c(C(F)(F)C(F)(F)F)nn1C)c1ccc(Cl)c(C(=O)NC2CC2)c1 [Example Ik-132, reference compound]
inhibition at 100 g/ha ([2]; MYZUPE, 100 g/ha, 6 dat): 0%

Cn1nc(C(F)(F)C(F)(F)F)c(C(F)(F)F)c1C(=O)Nc1ccc(F)c(C(=O)NC2CC2)c1 [Example Ik-155, reference compound]
inhibition at 100 g/ha ([2]; MYZUPE, 100 g/ha, 6 dat): 0% | inhibition at 100 g/ha ([3]; TETRUR, 100 g/ha, 6 dat): 0%

Cn1nc(C(F)(F)F)c(C(F)(F)F)c1C(=O)Nc1ccc(Cl)c(C(=O)NC2CC2)c1 [Example Ik-195, reference compound]
inhibition at 20 g/ha ([2]; MYZUPE, 20 g/ha, 6 dat): 0%

Reference: US9204645B2, “Insecticidal aromatic amides” (BAYER INTELLECTUAL PROPERTY GMBH, priority 2011, dated 2015)
